From US10576062B2, “Carbamoyloxymethyl triazole cyclohexyl acids as LPA antagonists” (Bristol-Myers Squibb Company, priority 2016, dated 2020)

Target: T1, human LPA1 (Homo sapiens, UniProt Q92633)
T1 construct: expressed in transfected cells; host or cells: Chinese hamster ovary (CHO) cells
Test: LPA1 functional antagonist assay (LPA-induced calcium flux)
Format: cell-based
Conditions: CHO cells overexpressing human LPA1; inhibition of calcium flux induced by 10 nM LPA; read-out: hLPA1 IC50
Summary of the method: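 CHO cells overexpressing human LPA1, loaded with calcium dye 30 min at 37° C, were preincubated 20 min at room temperature with compound (0.08 nM–5 μM, 0.5% DMSO) in HBSS/20 mM HEPES/0.1% fatty acid-free BSA.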

T1 sequence (Q92633 whole entry): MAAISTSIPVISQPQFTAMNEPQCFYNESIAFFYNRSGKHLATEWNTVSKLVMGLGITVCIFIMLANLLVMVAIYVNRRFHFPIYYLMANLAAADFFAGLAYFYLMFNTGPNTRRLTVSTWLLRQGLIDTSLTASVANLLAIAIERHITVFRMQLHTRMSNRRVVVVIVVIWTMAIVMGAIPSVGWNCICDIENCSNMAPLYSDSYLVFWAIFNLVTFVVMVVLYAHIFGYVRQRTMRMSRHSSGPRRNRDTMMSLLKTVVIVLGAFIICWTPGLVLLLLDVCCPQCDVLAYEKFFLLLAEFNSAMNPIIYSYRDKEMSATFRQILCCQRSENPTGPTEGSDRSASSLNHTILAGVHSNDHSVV

SMILES | IC50
CN(C(=O)OCc1c(-c2ccc(O[C@H]3CCC[C@H](C(=O)NS(C)(=O)=O)C3)cc2)nnn1C)C1CCCC1 [Example 7, (1-Methyl-4-(4-(((1S,3S)-3-((methylsulfonyl)carbamoyl)cyclohexyl)oxy)phenyl)-1H-1,2,3-triazol-5-yl)methyl cyclopentyl(methyl)carbamate] | 3750 nM
Cc1nc(-c2nnn(C)c2COC(=O)N(C)CC2CCC2)ccc1O[C@H]1CCC[C@H](C(N)=O)C1 [Example 14, (4-(5-(((1S,3S)-3-carbamoylcyclohexyl)oxy)-6-methylpyridin-2-yl)-1-methyl-1H-1,2,3-triazol-5-yl)methyl (cyclobutylmethyl)(methyl)carbamate] | 824 nM
Cc1nc(-c2nnn(C)c2COC(=O)N(C)CC2CCC2)ccc1O[C@H]1CCC[C@H](C#N)C1 [Example 15, (4-(5-(((1S,3S)-3-cyanocyclohexyl)oxy)-6-methylpyridin-2-yl)-1-methyl-1H-1,2,3-triazol-5-yl)methyl (cyclobutylmethyl)(methyl)carbamate] | 3750 nM

Further lines, results first:

IC50 | SMILES
352 nM | Cc1nc(-c2nnn(C)c2COC(=O)N(C)CC2CCC2)ccc1O[C@H]1CCC[C@H](C(=O)NS(C)(=O)=O)C1 [Example 17, (1-methyl-4-(6-methyl-5-(((1S,3S)-3-((methylsulfonyl)carbamoyl)cyclohexyl)oxy)pyridin-2-yl)-1H-1,2,3-triazol-5-yl)methyl (cyclobutylmethyl)(methyl)carbamate]
23 nM | CCCC(C)(C)N(C)C(=O)OCc1c(-c2ccc(O[C@H]3CCC[C@H](C(=O)O)C3)cc2)nnn1C [Example 10, (1S,3S)-3-(4-(1-Methyl-5-(((methyl(2-methylpentan-2-yl)carbamoyl)oxy)methyl)-1H-1,2,3-triazol-4-yl)phenoxy)cyclohexanecarboxylic Acid]
22 nM | Cc1nc(-c2nnn(C)c2COC(=O)N(C)CC2CCC2)ccc1O[C@H]1CCC[C@H](c2nnn[nH]2)C1 [Example 16, (4-(5-(((1S,3 S)-3-(1H-tetrazol-5-yl)cyclohexyl)oxy)-6-methylpyridin-2-yl)-1-methyl-1H-1,2,3-triazol-5-yl)methyl (cyclobutylmethyl)(methyl)carbamate]
19 nM | Cc1nc(-c2nnn(C)c2COC(=O)N(C)C[C@H]2C[C@@H]2C)ccc1O[C@H]1CCCC(C(=O)O)C1 (stereo in doubt) [Example 258, (1R,3 S)-3-((2-methyl-6-(1-methyl-5-(((methyl(((1S,2S)-2-methylcyclopropyl)methyl)carbamoyl)oxy)methyl)-1H-1,2,3-triazol-4-yl)pyridin-3-yl)oxy)cyclohexane-1-carboxylic Acid]
19 nM | CN(C(=O)OCc1c(-c2ccc(O[C@H]3CCC[C@H](C(=O)O)C3)cn2)nnn1C)C1CCCC1 [Example 2, (1S,3S)-3-((6-(5-(((cyclopentyl(methyl)carbamoyl)oxy)methyl)-1-methyl-1H-1,2,3-triazol-4-yl)pyridin-3-yl)oxy)cyclohexane-1-carboxylic Acid]
19 nM | CN(CCC1CC1)C(=O)OCc1c(-c2ccc(O[C@H]3CCC[C@H](C(=O)O)C3)cn2)nnn1C [Example 3, (1S,3S)-3-((6-(5-((((2-cyclopropylethyl)(methyl)carbamoyl)oxy)methyl)-1-methyl-1H-1,2,3-triazol-4-yl)pyridin-3-yl)oxy)cyclohexane-1-carboxylic Acid]

Same assay, conditions: human LPA1; read-out: hLPA1 IC50

SMILES | IC50
Cc1nc(-c2nnn(C)c2COC(=O)N(C)C2CC3(CCC3)C2)ccc1O[C@H]1CCCC(C(=O)O)C1 (stereo in doubt) [Example 158, (1R,3S)-3-((2-methyl-6-(1-methyl-5-(((methyl(spiro[3.3]heptan-2-yl)carbamoyl)oxy)methyl)-1H-1,2,3-triazol-4-yl)pyridin-3-yl)oxy)cyclohexane-1-carboxylic acid] | 32 nM

Same assay, conditions: read-out: hLPA1 IC50

SMILES | IC50
Cc1nc(-c2nnn(C)c2COC(=O)N(C)C2(C)CC(C)C2)ccc1O[C@H]1CCC[C@H](C(=O)O)C1 (single isomer, unassigned) [Example 107] | 70 nM
